Activity calls are given as the source filed them. The calls are words filed in the database; no cut-off is given here.
What was measured:
[1] = system: A549; experiment: Antiproliferative activity against human A549 cells after 72 hrs by MTT assay; assay type: functional, cell-based; conditions: A549, 72 h
[2] = MRT (0 to t)in male Sprague-Dawley rat at 100 mg/kg, ip; assay type: ADME, organism-based; conditions: in vivo
[3] = system: DNA; experiment: Binding affinity to DNA (unknown origin) assessed as DNA intercalation at 100 uM measured by unwinding assay relative to control; assay type: nucleic-acid assay; conditions: Homo sapiens
[4] = system: HCCLM9; experiment: Induction of apoptosis in human HCCLM9 cells assessed as increase in cleaved caspase-3 expression at 3.75 to 15 uM; assay type: functional, cell-based; conditions: dose 3.75-15 µM
[5] = system: HCCLM9; experiment: Induction of apoptosis in human HCCLM9 cells assessed as increase in cytochrome C expression at 3.75 to 15 uM; assay type: functional, cell-based; conditions: dose 3.75-15 µM
[6] = system: HCT-116; experiment: Antiproliferative activity against human HCT-116 cells after 72 hrs by MTT assay; assay type: functional, cell-based; conditions: HCT-116, 72 h
[7] = system: HL-60; experiment: Antiproliferative activity against human HL-60 cells after 72 hrs by MTT assay; assay type: functional, cell-based; conditions: HL-60, 72 h
[8] = system: Huh-7; experiment: Inhibition of MMP-9 expression in human Huh-7 cells at 5 to 20 uM measured by western blot analysis; assay type: functional, cell-based; conditions: dose 5-20 µM
[9] = Half-life in male Sprague-Dawley rat at 100 mg/kg, ip; assay type: ADME, organism-based; conditions: in vivo
[10] = system: Huh-7; experiment: Induction of cell cycle arrest in human Huh-7 cells assessed as decrease in cell accumulation at G0/G1 phase at 5 to 20 uM measured after 48 hrs by flow cytometry analysis; assay type: functional, cell-based; conditions: dose 5-20 µM
[11] = system: Huh-7; experiment: Induction of mitochondrial apoptosis in human Huh-7 cells assessed as inhibition of p-Akt levels at 5 to 20 uM measured after 48 hrs by Western blot analysis; assay type: functional, cell-based; conditions: dose 5-20 µM
[12] = system: Huh-7; experiment: Induction of apoptosis in human Huh-7 cells assessed as increase in Bax expression at 5 to 20 uM; assay type: functional, cell-based; conditions: dose 5-20 µM
[13] = system: Huh-7; experiment: Induction of apoptosis in human Huh-7 cells at 5 to 20 uM measured by Annexin V /propidium iodide staining method; assay type: functional, cell-based; conditions: dose 5-20 µM
[14] = system: HCCLM9; experiment: Induction of mitochondrial dysfunction in human HCCLM9 cells assessed as decrease in MMP levels at 5 to 20 uM; assay type: functional, cell-based; conditions: dose 5-20 µM
[15] = system: Huh-7; experiment: Inhibition of cell invasion in human Huh-7 cells at 2 to 8 uM after 24 hrs; assay type: functional, cell-based; conditions: dose 2-8 µM
[16] = biological target: DNA topoisomerase 1 (Homo sapiens) (UniProt P11387); experiment: Inhibition of DNA topoisomerase 1 (unknown origin) at 25 to 50 uM measured by agar gel electrophoresis relative to control; conditions: dose 25-50 µM
[17] = biological target: DNA topoisomerase 2-alpha (Homo sapiens) (UniProt P11388); experiment: Inhibition of DNA topoisomerase 2 (unknown origin) at 25 uM measured by agar gel electrophoresis relative to control
[18] = system: Huh-7; experiment: Induction of cell cycle arrest in human Huh-7 cells assessed as increase in cell accumulation at G2/M phase at 5 to 20 uM measured after 48 hrs by flow cytometry analysis; assay type: functional, cell-based; conditions: dose 5-20 µM
[19] = system: HCCLM9; experiment: Antiproliferative activity against human HCCLM9 cells after 72 hrs by MTT assay; assay type: functional, cell-based; conditions: HCCLM9, 72 h
[20] = system: HT-29; experiment: Antiproliferative activity against human HT-29 cells after 72 hrs by MTT assay; assay type: functional, cell-based; conditions: HT-29, 72 h
[21] = system: HCCLM9; experiment: Induction of mitochondrial apoptosis in human HCCLM9 cells assessed as inhibition of p-Akt levels at 3.75 to 15 uM measured after 48 hrs by Western blot analysis; assay type: functional, cell-based; conditions: dose 3.75-15 µM
[22] = system: HGC-27; experiment: Antiproliferative activity against human HGC-27 cells after 72 hrs by MTT assay; assay type: functional, cell-based; conditions: HGC-27, 72 h
[23] = system: HCCLM9; experiment: Induction of apoptosis in human HCCLM9 cells assessed as increase in cleaved caspase-9 expression at 3.75 to 15 uM; assay type: functional, cell-based; conditions: dose 3.75-15 µM

Chain of DNA topoisomerase 2-alpha (Homo sapiens) (P11388 whole entry): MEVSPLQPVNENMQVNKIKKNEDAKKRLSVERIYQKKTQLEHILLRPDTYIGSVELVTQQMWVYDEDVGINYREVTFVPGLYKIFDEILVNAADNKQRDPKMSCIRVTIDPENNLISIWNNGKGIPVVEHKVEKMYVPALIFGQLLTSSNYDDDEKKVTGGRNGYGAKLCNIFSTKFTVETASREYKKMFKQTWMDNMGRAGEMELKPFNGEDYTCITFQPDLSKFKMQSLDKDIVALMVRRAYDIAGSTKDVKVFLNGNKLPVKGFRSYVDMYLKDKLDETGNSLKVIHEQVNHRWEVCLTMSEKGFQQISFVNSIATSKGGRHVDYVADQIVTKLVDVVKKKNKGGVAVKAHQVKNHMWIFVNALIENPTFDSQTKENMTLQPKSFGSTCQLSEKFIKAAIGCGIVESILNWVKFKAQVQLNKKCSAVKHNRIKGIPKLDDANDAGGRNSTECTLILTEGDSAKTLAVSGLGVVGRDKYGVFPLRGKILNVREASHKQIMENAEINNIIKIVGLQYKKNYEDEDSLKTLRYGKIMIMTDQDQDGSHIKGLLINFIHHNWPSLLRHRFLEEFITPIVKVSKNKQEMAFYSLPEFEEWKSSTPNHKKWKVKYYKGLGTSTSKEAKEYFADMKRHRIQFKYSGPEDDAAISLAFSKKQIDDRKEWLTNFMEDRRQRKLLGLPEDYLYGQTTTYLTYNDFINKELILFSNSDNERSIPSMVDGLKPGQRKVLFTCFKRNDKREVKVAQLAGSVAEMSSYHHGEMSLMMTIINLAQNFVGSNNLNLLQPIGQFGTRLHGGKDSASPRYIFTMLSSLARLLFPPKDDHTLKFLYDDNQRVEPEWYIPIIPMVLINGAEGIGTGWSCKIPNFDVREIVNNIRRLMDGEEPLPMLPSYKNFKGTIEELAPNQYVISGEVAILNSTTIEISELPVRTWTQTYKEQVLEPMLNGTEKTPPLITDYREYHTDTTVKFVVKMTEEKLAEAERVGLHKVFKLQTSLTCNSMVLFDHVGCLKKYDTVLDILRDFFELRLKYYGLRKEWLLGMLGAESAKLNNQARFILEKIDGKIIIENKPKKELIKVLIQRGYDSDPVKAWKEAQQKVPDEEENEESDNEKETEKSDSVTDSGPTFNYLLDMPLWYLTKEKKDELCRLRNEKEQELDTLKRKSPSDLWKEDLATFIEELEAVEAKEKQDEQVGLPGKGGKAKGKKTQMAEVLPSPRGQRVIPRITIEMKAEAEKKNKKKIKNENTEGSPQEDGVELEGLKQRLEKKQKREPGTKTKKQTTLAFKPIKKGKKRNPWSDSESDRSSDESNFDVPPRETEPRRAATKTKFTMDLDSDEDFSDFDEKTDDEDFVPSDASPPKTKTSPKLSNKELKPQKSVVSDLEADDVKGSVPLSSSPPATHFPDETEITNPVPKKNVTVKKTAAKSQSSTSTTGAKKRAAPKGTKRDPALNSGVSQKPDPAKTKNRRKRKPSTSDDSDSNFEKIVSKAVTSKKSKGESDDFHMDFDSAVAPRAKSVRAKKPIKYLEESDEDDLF
Chain of DNA topoisomerase 1 (Homo sapiens) (P11387 whole entry): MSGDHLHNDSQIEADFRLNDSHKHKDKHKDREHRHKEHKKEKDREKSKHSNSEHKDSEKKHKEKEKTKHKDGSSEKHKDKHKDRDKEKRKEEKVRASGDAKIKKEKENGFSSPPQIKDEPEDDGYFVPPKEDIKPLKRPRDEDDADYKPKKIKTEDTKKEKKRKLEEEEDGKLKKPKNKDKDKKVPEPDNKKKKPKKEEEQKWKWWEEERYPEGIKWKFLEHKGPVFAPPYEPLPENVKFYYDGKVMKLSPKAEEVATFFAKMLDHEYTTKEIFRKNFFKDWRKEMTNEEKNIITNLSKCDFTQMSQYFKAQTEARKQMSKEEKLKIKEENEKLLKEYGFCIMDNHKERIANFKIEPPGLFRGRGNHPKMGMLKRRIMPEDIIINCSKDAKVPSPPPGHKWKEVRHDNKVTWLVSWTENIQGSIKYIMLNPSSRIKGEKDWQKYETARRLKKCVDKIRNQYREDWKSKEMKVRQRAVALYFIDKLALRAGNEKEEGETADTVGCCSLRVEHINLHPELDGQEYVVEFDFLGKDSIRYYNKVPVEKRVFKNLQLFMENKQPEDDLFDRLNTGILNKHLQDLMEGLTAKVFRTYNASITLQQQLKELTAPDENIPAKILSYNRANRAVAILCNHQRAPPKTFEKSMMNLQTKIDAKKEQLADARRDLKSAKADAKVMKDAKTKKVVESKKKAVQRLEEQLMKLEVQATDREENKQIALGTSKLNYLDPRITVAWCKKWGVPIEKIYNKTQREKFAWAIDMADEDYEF

## CNCc1cc2c(cc1-c1cc3ccc4c(c3cn1)OCO4)OCO2
[1]
  IC50: 36.3 µM
[2]
  MRT last: 1 h
[3]
  Activity: Active
[4]
  Activity: Active
[5]
  Activity: Active
[6]
  IC50: 64 µM
[7]
  IC50: 59.1 µM
[8]
  inhibition: Active
[9]
  half-life: 3.73 h
[10]
  Activity: Active
[11]
  Activity: Active
[12]
  Activity: Active
[13]
  Activity: Active
[14]
  Activity: Active
[15]
  inhibition: Active
[16]
  inhibition: Active
[17]
  inhibition: Active
[18]
  Activity: Active
[19]
  IC50: 6.83 µM
[20]
  IC50: 31 µM
[21]
  Activity: Active
[22]
  IC50: 34.2 µM
[23]
  Activity: Active

Source: ChEMBL document CHEMBL5154652, “Design, synthesis and anti-hepatocellular carcinoma activity of 3-arylisoquinoline alkaloids” (Eur J Med Chem, 2022)
